Test results taken from patent US9512132B2, “Pyrazole compounds as CB2 agonists” (Hoffmann-La Roche Inc., priority 2013, dated 2016).
Like-named read-outs stand apart in the source and are kept apart here.

Assays:
[1] = target: human CB2 receptor (Homo sapiens (Human), UniProt P34972); assay: cAMP assay, CHO cells expressing human CB2 receptors; assay type: cell-based
Procedure: (§1) CHO cells expressing human CB1 or CB2 receptors are seeded 17-24 hours prior to the experiment 50.000 cells per well in a black 96 well plate with flat clear bottom (Corning Costar #3904) in DMEM (Invitrogen No. 31331), lx HT supplement, with 10% fetal calf serum and incubated at 5% CO2 and 37° C. in a humidified incubator. The growth medium was exchanged with Krebs Ringer Bicarbonate buffer with 1 mM IBMX and incubated at 30° C. for 30 min. Compounds were added to a final assay volume of 100 μl and incubated for 30 min at 30° C. Using the cAMP-Nano-TRF detection kit the assay (Roche Diagnostics) was stopped by the addition of 50 μl lysis reagent (Tris, NaCl, 1.5% Triton X100, 2.5% NP40, 10% NaN3) and 50 μl detection solutions (20 μM mAb Alexa700-cAMP 1:1, and 48 μM Ruthenium-2-AHA-cAMP) and shaken for 2 h at room temperature. The time-resolved energy transfer is measured by a TRF reader (Evotec Technologies GmbH), equipped with a ND:YAG laser as excitation source. The plate is measured twice with the excitation at 355 nm and at the emission with a delay of 100 ns and a gate of 100 ns, total exposure time 10 s at 730 (bandwidth 30 nm) or 645 nm (bandwidth 75 nm), respectively. The FRET signal is calculated as follows: FRET=T730-Alexa730-P(T645-B645) with P=Ru730-B730/Ru645-B645, where T730 is the test well measured at 730 nM, T645 is the test well measured at 645 nm, B730 and B645 are the buffer controls at 730 nm and 645 nm, respectively. cAMP content is determined from the function of a standard curve spanning from 10 μM to 0.13 nM cAMP.
(§2) EC50 values were determined using Activity Base analysis (ID Business Solution, Limited). The EC50 values for a wide range of cannabinoid agonists generated from this assay were in agreement with the values published in the scientific literature.

[2] = target: human CB1 receptor (Homo sapiens (Human), UniProt P21554); assay: cAMP assay, CHO cells expressing human CB1 receptors; assay type: cell-based
Chain of human CB1 receptor (P21554 whole entry): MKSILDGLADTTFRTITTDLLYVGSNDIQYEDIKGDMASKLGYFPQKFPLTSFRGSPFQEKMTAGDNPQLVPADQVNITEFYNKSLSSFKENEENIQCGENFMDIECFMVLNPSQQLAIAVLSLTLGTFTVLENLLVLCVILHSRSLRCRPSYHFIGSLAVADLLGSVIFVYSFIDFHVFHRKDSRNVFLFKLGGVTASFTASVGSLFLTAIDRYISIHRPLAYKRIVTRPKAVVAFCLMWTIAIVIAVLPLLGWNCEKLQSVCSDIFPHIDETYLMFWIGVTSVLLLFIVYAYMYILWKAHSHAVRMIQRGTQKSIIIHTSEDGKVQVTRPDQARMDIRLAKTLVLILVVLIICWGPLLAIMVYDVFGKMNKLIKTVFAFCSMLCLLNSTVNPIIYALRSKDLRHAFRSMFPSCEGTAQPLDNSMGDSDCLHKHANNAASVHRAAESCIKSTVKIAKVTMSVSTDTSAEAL
Procedure: as §1, §2

[3] = functional cAMP assay, CHO cells expressing human CB2, read-out: human CB2 EC50
[4] = functional cAMP assay, CHO cells expressing human CB1, read-out: human CB1 EC50

Chain of human CB2 receptor (P34972 whole entry): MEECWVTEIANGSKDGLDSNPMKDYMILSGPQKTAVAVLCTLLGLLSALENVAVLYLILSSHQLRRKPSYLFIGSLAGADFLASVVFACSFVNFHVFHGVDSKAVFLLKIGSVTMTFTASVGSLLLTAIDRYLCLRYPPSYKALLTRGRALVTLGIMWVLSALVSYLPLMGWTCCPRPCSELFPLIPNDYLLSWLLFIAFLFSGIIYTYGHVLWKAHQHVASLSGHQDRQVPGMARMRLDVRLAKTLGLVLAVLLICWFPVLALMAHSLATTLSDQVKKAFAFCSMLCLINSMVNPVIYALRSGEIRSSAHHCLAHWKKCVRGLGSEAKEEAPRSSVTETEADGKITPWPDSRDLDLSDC

Work on `Cc1nnc(Cn2ncc3c(N4CCC(F)(F)C4)nc(C(C)(C)C)nc32)n1C` [Example 17, 6-tert-Butyl-4-(3,3-difluoro-pyrrolidin-1-yl)-1-(4,5-dimethyl-4H-[1,2,4]triazol-3-ylmethyl)-1H-pyrazolo[3,4-d]pyrimidine] yielded an EC50 [1, 3] of 3 nM and an EC50 [2, 4] greater than 10000 nM.

`CC(C)(C)c1nc(N2CCC[C@@H]2CO)c2cnn(Cc3ccccc3C(F)(F)F)c2n1` [Example 34, {(R)-1-[6-tert-Butyl-1-[(2-trifluoromethylphenyl)methyl]-1H-pyrazolo[3,4-d]pyrimidin-4-yl]pyrrolidin-2-yl}-methanol] gave an EC50 [1, 3] of 5 nM and an EC50 [2, 4] greater than 10000 nM.

In the case of `Cc1nonc1Cn1ncc2c(N3CCC(F)(F)C3)nc(C3CC3)cc21` [Example 27, 6-Cyclopropyl-4-(3,3-difluoro-pyrrolidin-1-yl)-1-(4-methyl-furazan-3-ylmethyl)-1H-pyrazolo[4,3-c]pyridine], the EC50 [1, 3] is reported as 42.5 nM and the EC50 [2, 4] is reported as greater than 10000 nM.

Work on `CC(C)(C)c1nc(N2CCC(F)(F)C2)c2cnn(C3CS(=O)(=O)C3)c2n1` [Example 13, 6-tert-Butyl-4-(3,3-difluoro-pyrrolidin-1-yl)-1-(1,1-dioxo-1λ^6-thietan-3-yl)-1H-pyrazolo[3,4-d]pyrimidine] yielded an EC50 [1, 3] of 19.6 nM and an EC50 [2, 4] greater than 10000 nM.

`CC(C)(C)c1nc(N2CCC(F)(F)C2)c2cnn(CC(=O)c3ccccn3)c2n1` [Example 22, 2-[6-tert-Butyl-4-(3,3-difluoro-pyrrolidin-1-yl)-pyrazolo[3,4-d]pyrimidin-1-yl]-1-pyridin-2-yl-ethanone] showed an EC50 [1, 3] of 8.4 nM and an EC50 [2, 4] greater than 10000 nM.

`CC(C)(C)c1nc(N2CC[C@H](O)C2)c2cnn(Cc3ccccc3Cl)c2n1` [Example 3, (S)-1-[6-tert-Butyl-1-[(2-chlorophenyl)methyl]-1H-pyrazolo[3,4-d]pyrimidin-4-yl]-pyrrolidin-3-ol] was tested, and the EC50 [1, 3] was 5.1 nM and the EC50 [2, 4] was greater than 10000 nM.

`Cc1nonc1CO[C@H]1CCN(c2nc(C(C)(C)C)nc3c2cnn3Cc2nonc2C)C1` [Example 26, 6-tert-Butyl-4-[(S)-3-(4-methyl-furazan-3-ylmethoxy)-pyrrolidin-1-yl]-1-(4-methyl-furazan-3-ylmethyl)-1H-pyrazolo[3,4-d]pyrimidine] was tested, and the EC50 [1, 3] was 35.6 nM and the EC50 [2, 4] was greater than 10000 nM.

With `Cn1nncc1Cn1ncc2c(N3CC=C(F)C3)nc(C(C)(C)C)nc21` [Example 20, 6-tert-Butyl-4-(3-fluoro-2,5-dihydro-pyrrol-1-yl)-1-(3-methyl-3H-[1,2,3]triazol-4-ylmethyl)-1H-pyrazolo[3,4-d]pyrimidine] the EC50 [1, 3] was 1.6 nM and the EC50 [2, 4] was greater than 10000 nM.

`CC(C)(C)c1nc(N2CC[C@H](O)C2)c2cnn(Cc3ncccc3Cl)c2n1` [Example 32, (S)-1-[6-tert-Butyl-1-(3-chloro-pyridin-2-ylmethyl)-1H-pyrazolo[3,4-d]pyrimidin-4-yl]-pyrrolidin-3-ol] showed an EC50 [1, 3] of 1.5 nM and an EC50 [2, 4] greater than 10000 nM.

In the case of `CC(C)(C)c1nc(N2CCC(F)(F)C2)c2cnn(Cc3ccccc3C(F)(F)F)c2n1` [Example 7, 6-tert-Butyl-4-(3,3-difluoro-pyrrolidin-1-yl)-1-[(2-trifluoromethylphenyl)methyl]-1H-pyrazolo[3,4-d]pyrimidine], the EC50 [1, 3] is reported as 1.1 nM and the EC50 [2, 4] is reported as greater than 10000 nM.

Compound `Cn1nncc1Cn1ncc2c(N3CCC(F)(F)C3)nc(C(C)(C)C)nc21` [Example 19, 6-tert-Butyl-4-(3,3-difluoro-pyrrolidin-1-yl)-1-(3-methyl-3H-[1,2,3]triazol-4-ylmethyl)-1H-pyrazolo[3,4-d]pyrimidine] has an EC50 [1] of 1.4 nM and an EC50 [2] greater than 10000 nM.

For `Cc1nonc1Cn1ncc2c(N3CCC(F)(F)C3)cc(C3CC3)nc21` [Example 28, 6-Cyclopropyl-4-(3,3-difluoro-pyrrolidin-1-yl)-1-(4-methyl-furazan-3-ylmethyl)-1H-pyrazolo[3,4-b]pyridine], the EC50 [1, 3] was 1.9 nM and the EC50 [2, 4] was greater than 10000 nM.

Compound `CC(C)(C)c1nc(N2CCC(F)(F)C2)c2cnn(Cc3nnnn3C3CC3)c2n1` [Example 16, 6-tert-Butyl-1-(1-cyclopropyl-1H-tetrazol-5-ylmethyl)-4-(3,3-difluoro-pyrrolidin-1-yl)-1H-pyrazolo[3,4-d]pyrimidine] has an EC50 [1, 3] of 0.6 nM and an EC50 [2, 4] greater than 10000 nM.

In the case of `CC(C)(C)c1nc(N2CCC(F)(F)C2)c2cnn(Cc3ccc(F)cc3Cl)c2n1` [Example 6, 6-tert-Butyl-1-[(2-chloro-4-fluorophenyl)methyl]-4-(3,3-difluoro-pyrrolidin-1-yl)-1H-pyrazolo[3,4-d]pyrimidine], the EC50 [1, 3] is reported as 5.9 nM and the EC50 [2, 4] is reported as greater than 10000 nM.

`CC(C)(C)c1nc(N2CC[C@H](O)C2)c2cnn(Cc3ccccc3C(F)(F)F)c2n1` [Example 29, (S)-1-[6-tert-Butyl-1-[(2-trifluoromethylphenyl)methyl]-1H-pyrazolo[3,4-d]pyrimidin-4-yl]pyrrolidin-3-ol] showed an EC50 [1, 3] of 1.9 nM and an EC50 [2, 4] greater than 10000 nM.

In the case of `COc1ccc(Cn2ncc3c(N4CC[C@H](O)C4)nc(C(C)(C)C)nc32)cc1` [Example 23, (S)-1-[6-tert-Butyl-1-[(4-methoxyphenyl)methyl]-1H-pyrazolo[3,4-d]pyrimidin-4-yl]-pyrrolidin-3-ol], the EC50 [1, 3] is reported as 5.5 nM and the EC50 [2, 4] is reported as greater than 10000 nM.

In the case of `Cn1nnnc1Cn1ncc2c(N3CCC(F)(F)C3)nc(C(C)(C)C)nc21` [Example 15, 6-tert-Butyl-4-(3,3-difluoro-pyrrolidin-1-yl)-1-(1-methyl-1H-tetrazol-5-ylmethyl)-1H-pyrazolo[3,4-d]pyrimidine], the EC50 [1, 3] is reported as 0.9 nM and the EC50 [2, 4] is reported as greater than 10000 nM.

`CC(C)(C)c1nc(N2CCC(F)(F)C2)c2cnn(CC(=O)c3ccncc3)c2n1` [Example 21, 2-[6-tert-Butyl-4-(3,3-difluoro-pyrrolidin-1-yl)-pyrazolo[3,4-d]pyrimidin-1-yl]-1-pyridin-4-yl-ethanone] gave an EC50 [1, 3] of 3.4 nM and an EC50 [2, 4] greater than 10000 nM.

For `CCOc1nc(C(C)(C)C)nc2c1cnn2Cc1ccccc1Cl` [Example 5, 6-tert-Butyl-1-[(2-chlorophenyl)methyl]-4-ethoxy-1H-pyrazolo[3,4-d]pyrimidine], the EC50 [1, 3] was 25.5 nM and the EC50 [2, 4] was greater than 10000 nM.

`COC[C@H]1CCCN1c1nc(C(C)(C)C)nc2c1cnn2Cc1ccccc1C(F)(F)F` [Example 35, 6-tert-Butyl-4-((R)-2-methoxymethyl-pyrrolidin-1-yl)-1-[(2-trifluoromethylphenyl)methyl]-1H-pyrazolo[3,4-d]pyrimidine] gave an EC50 [1, 3] of 13.3 nM and an EC50 [2, 4] greater than 10000 nM.

Compound `COc1ccc(Cn2ncc3c(N4CCC(F)(F)C4)cc(C4CC4)nc32)cc1` [Example 24, 6-Cyclopropyl-4-(3,3-difluoro-pyrrolidin-1-yl)-1-[(4-methoxyphenyl)methyl]-1H-pyrazolo[3,4-b]pyridine] has an EC50 [1, 3] of 17.5 nM and an EC50 [2, 4] greater than 10000 nM.

`Cn1nnnc1Cn1ncc2c(N3CC[C@H](O)C3)nc(C(C)(C)C)nc21` [Example 31, (S)-1-[6-tert-Butyl-1-(1-methyl-1H-tetrazol-5-ylmethyl)-1H-pyrazolo[3,4-d]pyrimidin-4-yl]-pyrrolidin-3-ol] gave an EC50 [1, 3] of 17.3 nM and an EC50 [2, 4] greater than 10000 nM.

`Cc1nonc1Cn1ncc2c(N3CCC(F)(F)C3)nc(C(C)(C)C)nc21` [Example 9, 6-tert-Butyl-4-(3,3-difluoro-pyrrolidin-1-yl)-1-(4-methyl-furazan-3-ylmethyl)-1H-pyrazolo[3,4-d]pyrimidine] showed an EC50 [1, 3] of 0.5 nM and an EC50 [2, 4] greater than 10000 nM.

For `CC(C)(C)c1nc(N2CC[C@H](O)C2)c2cnn(Cc3ccccc3S(C)(=O)=O)c2n1` [Example 30, (S)-1-[6-tert-Butyl-1-(2-methanesulfonyl-benzyl)-1H-pyrazolo[3,4-d]pyrimidin-4-yl]-pyrrolidin-3-ol], the EC50 [1, 3] was 2.4 nM and the EC50 [2, 4] was greater than 10000 nM.

In the case of `CC(C)(C)c1nc(N2CCC(F)(F)C2)c2cnn(Cc3cccnc3Cl)c2n1` [Example 12, 6-tert-Butyl-1-(2-chloro-pyridin-3-ylmethyl)-4-(3,3-difluoro-pyrrolidin-1-yl)-1H-pyrazolo[3,4-d]pyrimidine], the EC50 [1, 3] is reported as 1.6 nM and the EC50 [2, 4] is reported as 1570 nM.

In the case of `COC[C@H]1CCCN1c1nc(C(C)(C)C)nc2c1cnn2Cc1nonc1C` [Example 36, 6-tert-Butyl-4-((R)-2-methoxymethyl-pyrrolidin-1-yl)-1-(4-methyl-furazan-3-ylmethyl)-1H-pyrazolo[3,4-d]pyrimidine], the EC50 [1, 3] is reported as 1.4 nM and the EC50 [2, 4] is reported as greater than 10000 nM.

Compound `CC(C)(C)c1nc(N2CCC(F)(F)C2)c2cnn(Cc3ccccc3Cl)c2n1` [Example 4, 6-tert-Butyl-1-[(2-chlorophenyl)methyl]-4-(3,3-difluoro-pyrrolidin-1-yl)-1H-pyrazolo[3,4-d]pyrimidine] has an EC50 [1, 3] of 4.2 nM and an EC50 [2, 4] greater than 10000 nM.

Compound `CC(C)(C)c1nc(N2CC[C@H](O)C2)c2cnn(Cc3nnnn3C3CC3)c2n1` [Example 33, (S)-1-[6-tert-Butyl-1-(1-cyclopropyl-1H-tetrazol-5-ylmethyl)-1H-pyrazolo[3,4-d]pyrimidin-4-yl]-pyrrolidin-3-ol] has an EC50 [1, 3] of 8.8 nM and an EC50 [2, 4] greater than 10000 nM.
